According to patent US20070060636A1, “High enantiomeric purity dexanabinol for pharmaceutical compositions” (priority 2002, published 2007):

How the values were obtained:
CB1 mediated activity = assay: mice tetrad assay (suppression of spontaneous activity, hypothermia, catalepsy); format: in vivo; conditions: 50 mg/kg intravenously, dexanabinol according to the invention
Excerpt: The prepared sample was further tested for suppression of spontaneous activity, hypothermia, and catalepsy measured in the mice tetrad assay, and clearly produced adverse effects. […] Finally, it caused significant catalepsy, with the animals remaining immobile on the beam for almost 30 seconds.
Psychoactive cannabinoids have a variety of pharmacological effects that are evoked through interactions with the CB1 receptors predominantly expressed in the brain. The central nervous system effects that occur after in vivo exposure to HU-210 include euphoria, hypokinesia, hypothermia, anti-nociception, and catalepsy. Hypokinesia, hypothermia, anti-nociception, and catalepsy are the activities that form the basis of the “Tetrad assay” of CB1 mediated activity. […] The threshold for psychomimetic effects of oral THC in humans is in the range of 10-15 mg THC in an adult, i.e from about 0.16 to about 0.25 mg THC/kg body weight for adults of approximately 60 kg (“Cannabis and Cannabinoids, pharmacology, toxicology and therapeutic potential” edited by Grotenhermen and Russo, the Haworth Integrative Healing Press; Chapter 31 pp 345 and 351).
Dexanabinol according to the present invention was tested for suppression of spontaneous activity, hypothermia, and catalepsy in the mice tetrad assay.

[1] = 14-day multiple dose pharmacokinetic/toxicity study, rabbit; format: in vivo, rabbits; conditions: for AUC(0-inf) / Cmax: plasma, 25 mg/kg i.v. daily, final dose Day 14 (NOAEL); for AUC∞ Ratio to Phase I / Cmax Ratio to Phase I / AUC∞ Ratio to Phase II / Cmax Ratio to Phase II: 25 mg/kg Day 14; for AUC∞ Ratio to Phase I / Cmax Ratio to Phase I: vs human 150 mg Phase I; for AUC∞ Ratio to Phase II / Cmax Ratio to Phase II: vs human 150 mg Phase II
Method: (§1) The pharmacokinetics of dexanabinol of high enantiomeric purity formulated in CREMOPHOR EL®:ethanol as described in Example 4 were investigated in rats, rabbits, and monkeys following intravenous administration of single doses, and 14 and 28 days of repeated dosing. Human pharmacokinetics was studied during Phase I and Phase II clinical studies. Dexanabinol used in the pharmacokinetic studies was formulated as drug concentrates of 50 and 100 mg/ml and diluted with sterile 0.9% NaCl solution prior to intravenous (i.v.) administration to the desired final doses. Determination of dexanabinol concentrations in plasma and brain extracts was carried out using a validated Gas Chromatography-Mass Spectra (GC-MS) assay following solid phase extraction of the drug and derivatization. The limit of quantitation of the assay is 0.1 ng/ml.
(§2) Pharmacokinetic parameters were estimated by a non-compartmental method using WinNonlin Professional version 3.2 (Pharsight Corp., Mountain View, Calif.). The maximum plasma concentration (Cmax), when the drug is administered by infusion, is the concentration at the end of infusion. The Cmax following intravenous bolus administration is the value estimated by the software to be the concentration at t=0. The terminal slope (X) was estimated by linear regression through the last time points and used to calculate the terminal half-life (t1/2) from the following equation: t1/2=0.693/λ The area under the curve from time of dosing through the last time point (AUCz) was calculated by the linear trapezoid method. The AUC extrapolated to infinity (AUC∞) was calculated from the following equation: AUC∞=AUCz+Cz/λ where Cz is the concentration at the last time point predicted by the linear regression. AUC∞ was normalized for dose (mg/kg) and presented as AUC∞/Dose. Mean residence time (MRT), when the drug is administered by infusion is described by the following equation: MRT=(AUMC/AUC)−(TI)/2 Mean residence time after i.v. bolus administration is described by the following equation: MRT=(AUMC/AUC) where AUMC is the area under the first moment curve and TI is the length of infusion. Plasma clearance (CL), and the apparent volume of distribution at steady state (Vss) were calculated from the following equations: CL=Dose/AUC∞ Vss=MRT×CL
In 14-day multiple dose pharmacokinetic studies, the NOAEL was 15 mg/kg/day in rats and 25 mg/kg/day in rabbits. In a 28-day study in monkeys the NOAEL was 25 mg/kg/day. Cmax and AUC observed following the last dose at the NOAEL in the multiple dose toxicity studies and the ratios of these values to those observed in the Phase I and II studies for the 150 mg dose are shown in Table 7.

[2] = single dose toxicity and pharmacokinetics, rat; format: in vivo, Sprague Dawley rats; conditions: for AUC(0-inf) / Cmax: Sprague Dawley, plasma, single i.v. 50 mg/kg (NOAEL); for AUC∞ Ratio to Phase I / Cmax Ratio to Phase I / Cmax Ratio to Phase II: single i.v. 50 mg/kg; for AUC∞ Ratio to Phase I / Cmax Ratio to Phase I: vs human 150 mg Phase I; for Cmax Ratio to Phase II: vs human 150 mg Phase II
Method: as §1, §2
Table 6 summarizes the maximum plasma concentration (Cmax) and the area under the plasma concentration versus time curve (AUC) observed at the NOAEL doses cited above, as well as the animal to human exposure ratios (ER) for dexanabinol of high enantiomeric purity, expressed as the ratio of the pharmacokinetic (PK) parameter to that observed for a 150 mg dose in a Phase I study in human volunteers and in Phase II study in patients suffering from severe traumatic brain injury (TBI).

[3] = toxicology studies, single and/or multiple i.v. doses; format: in vivo, rats, rabbits, and monkeys
Method: In order to support the i.v. testing of dexanabinol of high enantiomeric purity in humans, a series of acute single-dose and sub-chronic multiple dose toxicology studies were conducted to establish the safety profile of the compound in rats, rabbits, and monkeys. The 2-week and 4-week multidose studies included complete clinical and morphological evaluations. In vitro/in vivo mutagenicity studies and special toxicological evaluations have also been carried out to evaluate the safety profile of dexanabinol. The toxicology studies employed doses that were multiples of the proposed clinical doses.

[4] = both sexes, iv, rabbit male & female

For `CCCCCCC(C)(C)c1cc(O)c2c(c1)OC(C)(C)[C@H]1CC=C(CO)C[C@H]21` [dexanabinol, 1,1-dimethylheptyl-(3S,4S)-7-hydroxy-Δ^6-tetrahydrocannabinol], the “adverse effect in tetrad assay” value (CB1 mediated activity) was “no adverse effect”, the AUC(0-inf) [1, 4] was 67700 ng·h/mL and the Cmax [1, 4] was 132 µg/mL. For the same compound, the AUC(0-inf) ([1]; iv, rabbit female) was 67900 ng·h/mL, the Cmax ([1]; iv, rabbit female) was 115 µg/mL and the AUC(0-inf) ([1]; iv, rabbit male) was 67700 ng·h/mL. The Cmax ([1]; iv, rabbit male) was 150 µg/mL, the “AUC∞ Ratio to Phase I” value ([1]; rabbit female) was 21.2 and the “Cmax Ratio to Phase I” value ([1]; rabbit female) was 23.0. For the same compound, the “AUC∞ Ratio to Phase II” value ([1]; rabbit female) was 45.8, the “Cmax Ratio to Phase II” value ([1]; rabbit female) was 58.6 and the “AUC∞ Ratio to Phase I” value ([1]; rabbit male & female) was 21.1. For the same compound, the “Cmax Ratio to Phase I” value ([1]; rabbit male & female) was 26.4, the “AUC∞ Ratio to Phase II” value ([1]; rabbit male & female) was 45.6 and the “Cmax Ratio to Phase II” value ([1]; rabbit male & female) was 67.2. For the same compound, the “AUC∞ Ratio to Phase I” value ([1]; rabbit male) was 21.1, the “Cmax Ratio to Phase I” value ([1]; rabbit male) was 29.9 and the “AUC∞ Ratio to Phase II” value ([1]; rabbit male) was 45.6. For the same compound, the “Cmax Ratio to Phase II” value ([1]; rabbit male) was 76.0, the NOAEL at 14 days ([1]; rabbit, in vivo, iv, 14-day multiple dose i.v.) was 25 mg/kg/day and the AUC(0-inf) ([2]; iv, rat female) was 173 µg·h/mL. For the same compound, the Cmax ([2]; iv, rat female) was 38.8 µg/mL, the AUC(0-inf) ([2]; iv, rat male) was 67.5 µg·h/mL and the Cmax ([2]; iv, rat male) was 102 µg/mL. For the same compound, the NOAEL ([2]; Sprague-Dawley, rat, in vivo, iv, single dose i.v., read-out: no observed adverse effect level (NOAEL)) was 50 mg/kg, the “AUC∞ Ratio to Phase I” value ([2]; rat female) was 54.0 and the “Cmax Ratio to Phase I” value ([2]; rat female) was 7.7. For the same compound, the “Cmax Ratio to Phase II” value ([2]; rat female) was 19.7, the “AUC∞ Ratio to Phase I” value ([2]; rat male) was 21.0 and the “Cmax Ratio to Phase I” value ([2]; rat male) was 20.4. For the same compound, the “Cmax Ratio to Phase II” value ([2]; rat male) was 51.9, the tolerability ([3]; CREMOPHOR EL:ethanol formulation, single and/or multiple i.v. doses in rats, rabbits and monkeys) was “generally well tolerated” and the psychomimetic side effect ([3]; at dose tested, any of the animal species tested) was “no psychomimetic side effect”.
